In patent US20070167526A1, “Topical mecamylamine formulations for ocular administration and uses thereof” (priority 2005, published 2007):

Assays:
[1] = Ocular bioavailability following intravenous administration (Example 2); type: in vivo, New Zealand White rabbit; conditions: rabbit; 15 mg/kg i.v.; FIG. 3
Description: This study was designed to model the ocular bioavailability of mecamylamine when administered systemically. Rabbit eyes are the preferred model for in vivo modeling of ocular drugs, however, the rabbit is not the subject of choice for modeling oral bioavailability. However, systemic administration does emulate orally administered mecamylamine to a reasonable approximation since mecamylamine has rapid absorption and high oral bioavailability. Therefore, intravenous injection was used to model ocular bioavailability of mecamylamine administered systemically, in order to determine the deposition of mecamylamine to the plasma, vitreous and posterior tissues (retina/choroid) of the eye from the blood.
The study comprised 2 groups (each N=6, 12 rabbits total) of male NZW (New Zealand White) rabbits weighing approximately 2.5-3 kg and obtained from Kralek Farms (Turlock, Calif.). Mecamylamine solution, prepared as described in Example 1, at a dose of 15 mg/kg was delivered via i.v. infusion as either a short infusion (1 hr) or slow infusion (6 hr) in rabbits sedated by ketamine/xylazine, with the slow infusion intended to model controlled systemic release of the mecamylamine.
For both groups, samples of the vitreous(≧0.1 ml) and plasma were withdrawn at 6 time points: pre-dose, 30 min, 1, 2, 4, and 6 hr. At 6 hours, all animals were sacrificed and vitreous and retinal tissues were collected. The total amount of mecamylamine administered during each infusion was the same, based on the weight of the individual rabbit.
The concentrations of mecamylamine present in the various samples were analyzed as described in Example 6, below.

in vivo = conditions: rabbit
Experimental: As used herein, the term “topically administered to a rabbit eye,” and cognates thereof, refers to the administration of a particular mecamylamine formulation, including formulations of pharmaceutically acceptable salts of mecamylamine, by applying 100 μL of the mecamylamine formulation to the cornea of each eye (2 drops of 50 μL each), wherein at the time of application the bottom eyelid is separated from the surface of the eye to make a pocket to ensure the entire dose is retained in contact with the eye. When the concentration of mecamylamine in plasma and in the retinal/choroidal tissue is to be measured in connection with the calculation of the ratio of the mecamylamine concentration in the retina/choroid versus the concentration of mecamylamine in plasma, the concentration of each is determined 1 hour after application of the formulation. The amount of mecamylamine present in plasma and the retina/choroid is determined by LC/MS/MS using internal standards of dextromethorphan and diphenhydramine and a standard of known concentration of mecamylamine. An exemplary method of administration of the topical formulation of mecamylamine is provided in Example 5. An exemplary LC/MS/MS method for determining the ratios described herein is given in detail in Example 6. When the mean maximum concentration of mecamylamine in plasma is to be determined, the concentration is again determined as described above and in Example 6. The term “mean maximum concentration of mecamylamine,” and its cognates, as used herein refers to the mean maximum concentration of mecamylamine measured in plasma when monitored over a 6 hour time period after administration of the formulation. When the mean total concentration of mecamylamine in plasma is to be determined, the concentration is again determined as described above and in Example 6. The term “total concentration of mecamylamine in plasma measured as the area under the curve,” (AUC) and cognates thereof, refers to summation of the areas under plot of the drug plasma versus time using a simple trapezoidal method with drug plasma time points taken to include 1, 3 and 6 hours after topical administration. Determination of AUC for corneal tissue, retinal/choroid tissue and aqueous humor is determined similarly. When the concentration of mecamylamine in plasma and in the corneal tissue is to be measured in connection with the calculation of the ratio of the mecamylamine concentration in the cornea (or aqueous humor) versus the concentration of mecamylamine in plasma, the concentration of each is determined 1 hour after application of 50 μl of the formulation. The amount of mecamylamine present in plasma and the cornea (or aqueous humor) is determined by LC/MS/MS using internal standards of dextromethorphan and diphenhydramine and a standard of known concentration of mecamylamine. An exemplary method of administration of the topical formulation of mecamylamine is provided in Example 5. An exemplary LC/MS/MS method for determining the ratios described herein is given in detail in Example 6.
A single dose of a polymer-free solution, gellan gum formulation and hypromellose formulation containing 3% mecamylamine hydrochloride, was instilled in the eyes of rabbits (Dutch-belted male rabbits (Convance, Denver, Pa.) minimum age 2 months and with weights of 1.6 to 1.8 kg). Two animals were euthanized 30 minutes, 1 hour or 3 hours after dosing.
Sample of blood and ocular tissue (obtained as described in previous examples) were analyzed for mecamylamine concentration using an LC MS/MS method up to 3 hours after dosing.
The area-under-the-curve (AUC) was calculated using a trapezoidal rule on a population pharmacokinetic basis (see Table 9).

healthy adults = assay: Phase 1 ocular and systemic safety of mecamylamine ophthalmic solution (Example 11); type: in vivo; conditions: human
Description: A phase 1 study entitled: “A Phase 1, Double-Masked, Randomized, 1-Day and 14-Day Escalating Dose Study to Assess the Ocular and Systemic Safety of Mecamylamine Ophthalmic Solution” was initiated in the United States in healthy adults. The safety objectives of this study were to evaluate the ocular and systemic safety of 4 concentrations of mecamylamine ophthalmic solution following 1-day (administered twice) and 14-day (BID) administration. The dose levels of mecamylamine ophthalmic solution evaluated were 0.03%, 0.1%, 0.3%, and 1%. A summary of the composition of the mecamylamine ophthalmic solution and placebo formulation is shown below in Table 7.
In the 1-day portion of the study, 10 subjects in each group were dosed in a single eye on two occasions with 6 hours between dosing. […] Subjects were evaluated for local (ocular) safety and tolerability based upon evaluation of ocular symptoms, ocular comfort, best-corrected visual acuity, biomicroscopy with fluorescein staining, measurement of intraocular pressure (IOP) by Goldman applanation tonometry, ophthalmoscopy, pupil size, and Schirmer's Test. They were also evaluated for systemic safety based upon assessment of physical examination, 12-lead ECG, vital signs, adverse events, hematology, clinical chemistry, and, urinalysis.

CNC1(C)C2CCC(C2)C1(C)C (stereo not shown) [mecamylamine, N-2,3,3-tetramethylbicyclo(2.2.1)heptan-2-amine]
amount of mecamylamine reaching the retina/choroid, long infusion versus short infusion [1]: more than 2 fold | Kp at 1 h (in vivo; male, Dutch-belted, in vivo): ≥ 1000 | ratio of the concentration of mecamylamine in the aqueous humor versus plasma (in vivo; male, Dutch-belted, in vivo, 1 h): at least 50:1 | AUC (in vivo; male, Dutch-belted, in vivo, topical or ocular): < 85 ng·h/mL | safety issues during the study (in vivo; single ocular dose): No safety issues arose | best-corrected visual acuity (healthy adults): no change in best corrected visual acuity | pupil size (healthy adults): none of the subjects tested showing an increase in pupil diameter
